In ChEMBL document CHEMBL3627713, “Triazole linked mono carbonyl curcumin-isatin bifunctional hybrids as novel anti tubulin agents: Design, synthesis, biological evaluation and molecular modeling studies” (Bioorg Med Chem, 2015) one finds IC50 and inhibition of growth data, which are given here for 7 compounds.

In experiment [1] the test system is HCT-116. Description: Cytotoxicity against human HCT116 cells assessed as growth inhibition after 48 hrs by sulforhodamine B assay. Type of experiment: functional, cell-based. To be noted: HCT-116, 48 h. In general terms: In SRB staining, fixed cells bind dye roughly in proportion to their protein.
The subject of experiment [2] is THP-1. Description: Cytotoxicity against human THP1 cells assessed as growth inhibition at 50 uM after 48 hrs by sulforhodamine B assay relative to control. The class given is functional. Particulars: THP-1, 48 h, read-out: GI.
The test system of experiment [3] is PC-3. The experiment is described as follows: Cytotoxicity against human PC3 cells assessed as growth inhibition at 50 uM after 48 hrs by sulforhodamine B assay relative to control. The class given is functional. To be noted: PC-3, 48 h, read-out: GI.
Experiment [4] relates to PC-3. Description: Cytotoxicity against human PC3 cells assessed as growth inhibition after 48 hrs by sulforhodamine B assay. Type of experiment: functional, cell-based. Particulars: PC-3, 48 h.
Experiment [5] has as its system HCT-116. The experiment is described as follows: Cytotoxicity against human HCT116 cells assessed as growth inhibition at 50 uM after 48 hrs by sulforhodamine B assay relative to control. Type of experiment: functional. To be noted: HCT-116, 48 h, read-out: GI.
Experiment [6] relates to THP-1. The experiment is described as follows: Cytotoxicity against human THP1 cells assessed as growth inhibition after 48 hrs by sulforhodamine B assay. The class given is functional, cell-based. Particulars: THP-1, 48 h.
Experiment [7] concerns COLO 205. Description: Cytotoxicity against human COLO205 cells assessed as growth inhibition at 50 uM after 48 hrs by sulforhodamine B assay relative to control. Type of experiment: functional. To be noted: COLO 205, 48 h, read-out: GI.
In the next experiment the test system is HeLa. The experiment is described as follows: Cytotoxicity against human HeLa cells assessed as growth inhibition at 50 uM after 48 hrs by sulforhodamine B assay relative to control. To be noted: read-out: GI. The class given is functional.
The nature of experiment [8]: Cytotoxicity against human MIAPaCa2 cells assessed as growth inhibition at 50 uM after 48 hrs by sulforhodamine B assay relative to control. Type of experiment: functional. To be noted: MIA PaCa-2, 48 h, read-out: GI.
The subject of a further experiment is CAKI-1. The experiment is described as follows: Cytotoxicity against human Caki1 cells assessed as growth inhibition at 50 uM after 48 hrs by sulforhodamine B assay relative to control. Type of experiment: functional. Particulars: CAKI-1, 48 h, read-out: GI.
The subject of the next experiment is A549. The experiment is described as follows: Cytotoxicity against human A549 cells assessed as growth inhibition at 50 uM after 48 hrs by sulforhodamine B assay relative to control. The class given is functional. To be noted: A549, 48 h, read-out: GI.
Experiment [9] relates to COLO 205. The experiment is described as follows: Cytotoxicity against human COLO205 cells assessed as growth inhibition after 48 hrs by sulforhodamine B assay. Type of experiment: functional, cell-based. Particulars: COLO 205, 48 h.

Structures are written as SMILES.

The term IC50 denotes the concentration needed to halve the response being measured. Regarding `COc1ccc(/C=C/C(=O)/C=C/c2ccc(OCc3cn(CCN4C(=O)C(=O)c5cc(Cl)ccc54)nn3)c(OC)c2)cc1OC`, the IC50 with HCT-116 [1] came out at 6.94 µM; with PC-3 [4], 13.7 µM; in the experiment on THP-1 [6], 9.33 µM; with COLO 205 [9] it was 11.5 µM. The inhibition of growth at 50 µM with THP-1 [2] is 77%; with PC-3 [3], 73%; in the experiment on HCT-116 [5], 79%; in the experiment on COLO 205 [7], 75%; with HeLa, 13%; in experiment [8], 12%. Further, the inhibition of growth at 50 µM worked out at 10% with CAKI-1 and 17% in the experiment on A549.
On to `COc1cc(/C=C/C(=O)/C=C/c2ccco2)ccc1OCc1cn(CCN2C(=O)C(=O)c3ccccc32)nn1`, for which the IC50 was 4.61 µM in the experiment on HCT-116 [1], 8.4 µM with PC-3 [4], 6.56 µM in the experiment on THP-1 [6] and 7.53 µM in the experiment with COLO 205 [9]. Besides, the inhibition of growth at 50 µM was found to be 72% with THP-1 [2]; 65% with PC-3 [3]; 78% in the experiment on HCT-116 [5]; 68% in the experiment on COLO 205 [7]; 10% in [8]; 12% in the experiment on CAKI-1.
For `COc1cc(/C=C/C(=O)/C=C/c2cc(OC)c(OC)c(OC)c2)ccc1OCc1cn(CCN2C(=O)C(=O)c3cc(Br)ccc32)nn1`, the IC50 in the experiment on HCT-116 [1] is 2.92 µM; in the experiment with PC-3 [4], 6.44 µM; with THP-1 [6], 3.14 µM; in the experiment with COLO 205 [9], 5.29 µM. The inhibition of growth at 50 µM with THP-1 [2] came out at 73%; in the experiment on PC-3 [3] it was 69%; in the experiment with HCT-116 [5], 75%; with COLO 205 [7], 70%; with HeLa, 15%; in [8] it was 15%. In addition, the inhibition of growth at 50 µM in the experiment with CAKI-1 is 12%; in the experiment on A549 it was 13%.
On to `COc1cc(/C=C/C(=O)/C=C/c2cccc3ccccc23)ccc1OCc1cn(CCN2C(=O)C(=O)c3cc(Cl)ccc32)nn1`, for which the IC50 in the experiment on HCT-116 [1] is 9.34 µM; with PC-3 [4], 14.1 µM; in the experiment on THP-1 [6], 11.1 µM; in the experiment on COLO 205 [9], 13.6 µM. Further, the inhibition of growth at 50 µM was 76% in the experiment on THP-1 [2], 71% with PC-3 [3], 78% in the experiment with HCT-116 [5] and 74% in the experiment on COLO 205 [7].
Take `COc1ccc(/C=C/C(=O)/C=C/c2ccc(OCc3cn(CCN4C(=O)C(=O)c5cc(Cl)ccc54)nn3)c(OC)c2)cc1`: the IC50 turned out to be 7.81 µM in the experiment with HCT-116 [1], 12.5 µM in the experiment on PC-3 [4], 9.78 µM in the experiment with THP-1 [6] and 11 µM in the experiment on COLO 205 [9]. The inhibition of growth at 50 µM in the experiment on THP-1 [2] was 64%; in the experiment on PC-3 [3] it was 60%; in the experiment on HCT-116 [5] it was 66%; in the experiment on COLO 205 [7], 63%; in the experiment on HeLa, 12%; in [8], 10%. Further, the inhibition of growth at 50 µM in the experiment on A549 is 15%.
Consider `COc1cc(/C=C/C(=O)/C=C/c2cc(OC)c(OC)c(OC)c2)ccc1OCc1cn(CCN2C(=O)C(=O)c3cc(Cl)ccc32)nn1`, for which the IC50 was 2.17 µM with HCT-116 [1], 7.14 µM in the experiment with PC-3 [4], 4.56 µM with THP-1 [6] and 5.97 µM with COLO 205 [9]. The inhibition of growth at 50 µM with THP-1 [2] stood at 86%; with PC-3 [3], 80%; with HCT-116 [5], 89%; in the experiment on COLO 205 [7], 84%; with HeLa, 15%; in experiment [8] it was 13%. Also, the inhibition of growth at 50 µM worked out at 13% in the experiment with CAKI-1 and 22% in the experiment on A549.
`COc1cc(/C=C/C(=O)/C=C/c2cccs2)ccc1OCc1cn(CCN2C(=O)C(=O)c3ccccc32)nn1`: the IC50 with HCT-116 [1] was 5.09 µM; with PC-3 [4] it was 8.51 µM; in the experiment on THP-1 [6], 6.83 µM; in the experiment on COLO 205 [9], 7.72 µM. Also, the inhibition of growth at 50 µM came out at 71% with THP-1 [2]; 63% in the experiment with PC-3 [3]; 76% in the experiment with HCT-116 [5]; 66% with COLO 205 [7]; 10% with CAKI-1.
